Experimental data taken from ChEMBL document CHEMBL2034824, “Pyridyl-2,5-diketopiperazines as potent, selective, and orally bioavailable oxytocin antagonists: synthesis, pharmacokinetics, and in vivo potency” (J Med Chem, 2012).
In brackets after ≈: the same amount, converted by molar mass.

Key:
[1] = Clearance in rat at 5 mg/kg; type: ADME, organism-based; parameters: dose 5 mg/kg; details: in vivo
[2] = Clearance in dog at 0.6 mg/kg; type: ADME, organism-based, Canis lupus familiaris; parameters: dose 0.6 mg/kg; details: in vivo
Liver = test: Intrinsic clearance in dog liver microsomes; type: ADME, Canis lupus familiaris, Microsome
Oxytocin receptor = biological target: T1, Oxytocin receptor (Homo sapiens, UniProt P30559); test: Displacement of [3H]oxytocin from human oxytocin receptor
T1 sequence (P30559 whole entry): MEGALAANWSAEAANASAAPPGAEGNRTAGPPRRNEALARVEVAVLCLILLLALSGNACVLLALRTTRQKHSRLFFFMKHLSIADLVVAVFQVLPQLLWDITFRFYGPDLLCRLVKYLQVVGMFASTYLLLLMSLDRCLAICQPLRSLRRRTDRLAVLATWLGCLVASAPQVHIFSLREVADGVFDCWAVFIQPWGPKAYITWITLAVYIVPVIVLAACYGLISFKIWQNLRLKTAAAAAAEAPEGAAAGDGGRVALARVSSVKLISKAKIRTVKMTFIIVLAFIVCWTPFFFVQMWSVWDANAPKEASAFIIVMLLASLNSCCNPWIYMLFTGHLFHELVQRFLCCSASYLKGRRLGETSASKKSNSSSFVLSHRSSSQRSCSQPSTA

Liver microsomes [3] = test: Intrinsic clearance in human liver microsomes; type: ADME, Microsome
[4] = AUC in rat at 5 mg/kg, po; type: ADME, organism-based; parameters: dose 5 mg/kg, route oral; details: plasma
[5] = AUC in dog at 0.6 mg/kg, po; type: ADME, organism-based, Canis lupus familiaris; parameters: dose 0.6 mg/kg, route oral; details: plasma
[6] = Aqueous solubility of the compound by HPLC analysis; type: physicochemical
[7] = Oral bioavailability in rat at 5 mg/kg; type: ADME, organism-based; details: in vivo
[8] = Intrinsic clearance in cynomolgus monkey liver microsomes; type: ADME, Macaca fascicularis, Microsome
[9] = Oral bioavailability in dog at 0.6 mg/kg; type: ADME, organism-based, Canis lupus familiaris; details: in vivo
Liver microsomes [10] = test: Intrinsic clearance in rat liver microsomes; type: ADME, Microsome
[11] = Lipophilicity, log D of the compound by HPLC analysis; type: physicochemical
serum albumin [12] = biological target: serum albumin (Rattus norvegicus, UniProt P02770); test: Binding affinity to rat serum albumin; type: ADME; details: read-out: PB (converted)
serum albumin (Rattus norvegicus, UniProt P02770), sequence (P02770 whole entry): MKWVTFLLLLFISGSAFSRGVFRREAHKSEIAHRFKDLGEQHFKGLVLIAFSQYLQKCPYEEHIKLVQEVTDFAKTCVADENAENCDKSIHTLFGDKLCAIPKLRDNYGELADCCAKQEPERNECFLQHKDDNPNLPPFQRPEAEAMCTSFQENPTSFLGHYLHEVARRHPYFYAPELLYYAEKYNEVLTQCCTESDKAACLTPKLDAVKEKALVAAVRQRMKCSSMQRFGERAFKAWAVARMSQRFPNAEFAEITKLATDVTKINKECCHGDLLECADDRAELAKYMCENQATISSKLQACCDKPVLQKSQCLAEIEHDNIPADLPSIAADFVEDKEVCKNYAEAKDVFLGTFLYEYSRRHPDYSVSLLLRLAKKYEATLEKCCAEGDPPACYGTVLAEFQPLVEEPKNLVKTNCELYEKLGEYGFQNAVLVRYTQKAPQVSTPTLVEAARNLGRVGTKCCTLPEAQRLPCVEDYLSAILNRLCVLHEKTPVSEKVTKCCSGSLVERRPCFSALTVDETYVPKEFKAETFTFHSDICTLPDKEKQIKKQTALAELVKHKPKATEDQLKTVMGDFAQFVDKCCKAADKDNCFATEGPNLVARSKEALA

serum albumin [13] = biological target: serum albumin (Homo sapiens, UniProt P02768); test: Binding affinity to human serum albumin; type: ADME; details: read-out: PB (converted)
serum albumin (Homo sapiens, UniProt P02768), sequence (P02768 whole entry): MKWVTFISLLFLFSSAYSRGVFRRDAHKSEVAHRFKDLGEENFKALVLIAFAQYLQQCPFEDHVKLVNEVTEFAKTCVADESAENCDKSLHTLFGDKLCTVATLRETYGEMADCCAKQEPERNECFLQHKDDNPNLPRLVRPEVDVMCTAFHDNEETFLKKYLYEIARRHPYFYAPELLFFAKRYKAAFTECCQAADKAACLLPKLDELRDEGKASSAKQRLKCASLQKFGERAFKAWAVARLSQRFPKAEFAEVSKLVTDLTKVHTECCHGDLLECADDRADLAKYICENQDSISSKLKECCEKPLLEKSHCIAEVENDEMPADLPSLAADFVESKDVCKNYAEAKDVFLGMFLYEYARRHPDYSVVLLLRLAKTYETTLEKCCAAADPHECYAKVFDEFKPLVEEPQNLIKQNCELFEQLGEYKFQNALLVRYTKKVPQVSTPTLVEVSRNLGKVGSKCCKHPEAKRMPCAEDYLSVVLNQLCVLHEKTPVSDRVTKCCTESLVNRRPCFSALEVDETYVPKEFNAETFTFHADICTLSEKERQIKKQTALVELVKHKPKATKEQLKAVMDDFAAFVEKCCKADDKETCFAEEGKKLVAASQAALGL

CC[C@H](C)[C@@H]1C(=O)N[C@H](C2Cc3ccccc3C2)C(=O)N1[C@@H](C(=O)N(C)C)c1ccc(C)nc1
clearance [1]: 19 mL/min/kg | clearance [2]: 10 mL/min/kg | CLH (Liver): 1 mL/min/g | Ki (Oxytocin receptor): 0.2 nM | CLH (Liver microsomes [3]): 2 mL/min/g | AUC [4]: 2270 ng·h/mL | AUC [5]: 347 ng·h/mL | solubility [6]: > 254 µg/mL | bioavailability [7]: 62% | CLH [8]: 9 mL/min/g | bioavailability [9]: 39% | CLH (Liver microsomes [10]): 1 mL/min/g

CC[C@H](C)[C@@H]1C(=O)N[C@H](C2Cc3ccccc3C2)C(=O)N1[C@@H](C(=O)NC)c1cnc(C)cc1C
clearance [1]: 23 mL/min/kg | CLH (Liver): 4 mL/min/g | Ki (Oxytocin receptor): 0.0631 nM | CLH (Liver microsomes [3]): 7 mL/min/g | AUC [4]: 407 ng·h/mL | bioavailability [7]: 11% | CLH [8]: 20 mL/min/g | CLH (Liver microsomes [10]): 1 mL/min/g

Cc1ccc([C@H](C(=O)N2CCOCC2)N2C(=O)[C@@H](C3Cc4ccccc4C3)NC(=O)[C@H]2CC2CC2)cn1
Ki (Oxytocin receptor): 5.01 nM | solubility [6]: > 258 µg/mL

CC[C@H](C)[C@@H]1C(=O)N[C@H](C2Cc3ccccc3C2)C(=O)N1[C@@H](C(=O)NC)c1ccc(C)nc1C
clearance [1]: 25 mL/min/kg | clearance [2]: 22 mL/min/kg | CLH (Liver): 5 mL/min/g | Ki (Oxytocin receptor): 0.398 nM | CLH (Liver microsomes [3]): 5 mL/min/g | AUC [4]: 1730 ng·h/mL | AUC [5]: 58 ng·h/mL | bioavailability [7]: 51% | CLH [8]: 6 mL/min/g | bioavailability [9]: 13% | CLH (Liver microsomes [10]): 1 mL/min/g

CC[C@H](C)[C@@H]1C(=O)N[C@H](C2Cc3ccccc3C2)C(=O)N1[C@@H](C(=O)NC)c1cc(C)cnc1C
CLH (Liver): 3 mL/min/g | Ki (Oxytocin receptor): 1.26 nM | CLH (Liver microsomes [3]): 3 mL/min/g | CLH [8]: 5 mL/min/g | CLH (Liver microsomes [10]): 1 mL/min/g

CCC(CC)[C@@H]1C(=O)N[C@H](C2Cc3ccccc3C2)C(=O)N1[C@@H](C(=O)NC)c1ccc(C)nc1C
Ki (Oxytocin receptor): 0.0501 nM | AUC [4]: 1240 ng·h/mL | CLH [8]: 31 mL/min/g | CLH (Liver microsomes [10]): 2 mL/min/g

CC[C@@H](C)[C@@H]1C(=O)N[C@H](C2Cc3ccccc3C2)C(=O)N1[C@@H](C(=O)N1CCOCC1)c1ccc(C)nc1
clearance [1]: 39 mL/min/kg | clearance [2]: 20 mL/min/kg | CLH (Liver): 2 mL/min/g | Ki (Oxytocin receptor): 0.501 nM | CLH (Liver microsomes [3]): 4 mL/min/g | AUC [4]: 1590 ng·h/mL | AUC [5]: 138 ng·h/mL | solubility [6]: > 280 µg/mL | bioavailability [7]: 44% | CLH [8]: 8 mL/min/g | bioavailability [9]: 31% | CLH (Liver microsomes [10]): 1 mL/min/g

CC[C@H](C)[C@@H]1C(=O)N[C@H](C2Cc3ccccc3C2)C(=O)N1[C@@H](C(=O)N(C)C)c1cc(C)cnc1C
CLH (Liver): 2 mL/min/g | Ki (Oxytocin receptor): 0.794 nM | CLH (Liver microsomes [3]): 5 mL/min/g | AUC [4]: 1370 ng·h/mL | CLH [8]: 13 mL/min/g | CLH (Liver microsomes [10]): 1 mL/min/g

CC[C@H](C)[C@@H]1C(=O)N[C@H](C2Cc3ccccc3C2)C(=O)N1[C@@H](C(=O)N(C)C)c1ccc(C)[n+]([O-])c1
clearance [1]: 28 mL/min/kg | clearance [2]: 14 mL/min/kg | Ki (Oxytocin receptor): 1 nM | CLH (Liver microsomes [3]): 1 mL/min/g | AUC [4]: 24 ng·h/mL | AUC [5]: 73 ng·h/mL | solubility [6]: > 242 µg/mL | bioavailability [7]: < 1% | CLH [8]: 1 mL/min/g | bioavailability [9]: 11% | CLH (Liver microsomes [10]): 1 mL/min/g

CC[C@@H](C)[C@@H]1C(=O)N[C@H](C2Cc3ccccc3C2)C(=O)N1[C@@H](C(=O)N(C)C)c1ccc(C)nc1
clearance [1]: 23 mL/min/kg | CLH (Liver): 1 mL/min/g | Ki (Oxytocin receptor): 1 nM | CLH (Liver microsomes [3]): 3 mL/min/g | AUC [4]: 3360 ng·h/mL | solubility [6]: > 237 µg/mL | bioavailability [7]: 82% | CLH [8]: 11 mL/min/g | CLH (Liver microsomes [10]): 1 mL/min/g

CCC(CC)[C@@H]1C(=O)N[C@H](C2Cc3ccccc3C2)C(=O)N1[C@@H](C(=O)N(C)C)c1ccc(C)nc1C
CLH (Liver): 1 mL/min/g | Ki (Oxytocin receptor): 0.0316 nM | CLH (Liver microsomes [3]): 18 mL/min/g | CLH [8]: 29 mL/min/g | CLH (Liver microsomes [10]): 3 mL/min/g

CCC(CC)[C@@H]1C(=O)N[C@H](C2Cc3ccccc3C2)C(=O)N1[C@@H](C(=O)N1CCOCC1)c1ccc(C)nc1
clearance [1]: 23 mL/min/kg | CLH (Liver): 5 mL/min/g | Ki (Oxytocin receptor): 0.0251 nM | CLH (Liver microsomes [3]): 12 mL/min/g | AUC [4]: 1380 ng·h/mL | bioavailability [7]: 55% | CLH [8]: 18 mL/min/g | CLH (Liver microsomes [10]): 1 mL/min/g

CC[C@H](C)[C@@H]1C(=O)N[C@H](C2Cc3ccccc3C2)C(=O)N1[C@@H](C(=O)N1CCOCC1)c1ccc(C)nc1
clearance [1]: 27 mL/min/kg | clearance [2]: 23 mL/min/kg | CLH (Liver): 2 mL/min/g | Ki (Oxytocin receptor): 0.158 nM | CLH (Liver microsomes [3]): 3 mL/min/g | AUC [4]: 1450 ng·h/mL | AUC [5]: 55 ng·h/mL | solubility [6]: > 268 µg/mL | bioavailability [7]: 54% | CLH [8]: 6 mL/min/g | bioavailability [9]: 14% | CLH (Liver microsomes [10]): 1 mL/min/g

Cc1ccc([C@H](C(=O)N(C)C)N2C(=O)[C@@H](C3Cc4ccccc4C3)NC(=O)[C@H]2CC2CC2)cn1
Ki (Oxytocin receptor): 5.01 nM | solubility [6]: 230 µg/mL (≈ 499 µM)

Cc1ccc([C@H](C(=O)N(C)C)N2C(=O)[C@@H](C3Cc4ccccc4C3)NC(=O)[C@H]2CC(C)(C)C)cn1
CLH (Liver): 1 mL/min/g | Ki (Oxytocin receptor): 0.0631 nM | CLH (Liver microsomes [3]): 6 mL/min/g | AUC [4]: 618 ng·h/mL | solubility [6]: > 242 µg/mL | CLH [8]: 8 mL/min/g | CLH (Liver microsomes [10]): 3 mL/min/g

CCC(CC)[C@@H]1C(=O)N[C@H](C2Cc3ccccc3C2)C(=O)N1[C@@H](C(=O)N(C)C)c1ccc(C)nc1
clearance [1]: 20 mL/min/kg | clearance [2]: 19 mL/min/kg | CLH (Liver): 1 mL/min/g | Ki (Oxytocin receptor): 0.0501 nM | CLH (Liver microsomes [3]): 11 mL/min/g | AUC [4]: 1810 ng·h/mL | AUC [5]: 255 ng·h/mL | bioavailability [7]: 36% | CLH [8]: 12 mL/min/g | bioavailability [9]: 47% | CLH (Liver microsomes [10]): 2 mL/min/g

CC[C@H](C)[C@@H]1C(=O)N[C@H](C2Cc3ccccc3C2)C(=O)N1[C@@H](C(=O)N1CCOCC1)c1cc(C)cnc1C
Ki (Oxytocin receptor): 0.794 nM

CC[C@H](C)[C@@H]1C(=O)N[C@H](C2Cc3ccccc3C2)C(=O)N1[C@@H](C(=O)N(C)C)c1cnc(C)cc1C
clearance [2]: 12 mL/min/kg | CLH (Liver): 1 mL/min/g | Ki (Oxytocin receptor): 0.0398 nM | CLH (Liver microsomes [3]): 9 mL/min/g | AUC [4]: 2680 ng·h/mL | AUC [5]: 140 ng·h/mL | CLH [8]: 32 mL/min/g | bioavailability [9]: 17% | CLH (Liver microsomes [10]): 1 mL/min/g

CC[C@H](C)[C@@H]1C(=O)N[C@H](C2Cc3ccccc3C2)C(=O)N1[C@@H](C(=O)N1CCOCC1)c1cnc(C)cc1C
CLH (Liver): 4 mL/min/g | Ki (Oxytocin receptor): 0.0501 nM | CLH (Liver microsomes [3]): 1 mL/min/g | AUC [4]: 1110 ng·h/mL | CLH [8]: 16 mL/min/g | CLH (Liver microsomes [10]): 1 mL/min/g

CC(C)C[C@@H]1C(=O)N[C@H](C2Cc3ccccc3C2)C(=O)N1[C@@H](C(=O)N(C)C)c1ccc(=O)[nH]c1
logD [11]: 1.3 | Ki (Oxytocin receptor): 3.16 nM | fraction unbound (serum albumin [12]): 0.63 | solubility [6]: > 240 µg/mL | fraction unbound (serum albumin [13]): 0.39

Cc1ccc([C@H](C(=O)N2CCOCC2)N2C(=O)[C@@H](C3Cc4ccccc4C3)NC(=O)[C@H]2CC(C)(C)C)cn1
clearance [1]: 20 mL/min/kg | clearance [2]: 24 mL/min/kg | CLH (Liver): 9 mL/min/g | Ki (Oxytocin receptor): 0.0794 nM | CLH (Liver microsomes [3]): 4 mL/min/g | AUC [4]: 770 ng·h/mL | AUC [5]: 21 ng·h/mL | solubility [6]: 213 µg/mL (≈ 411 µM) | bioavailability [7]: 18% | CLH [8]: 21 mL/min/g | bioavailability [9]: 5% | CLH (Liver microsomes [10]): 1 mL/min/g
